Test results as given in patent publication US20250205206A1, “USE OF DEXPRAMIPEXOLE FOR THE TREATMENT OF INADEQUATELY CONTROLLED MODERATE TO SEVERE ASTHMA” (Areteia Therapeutics, Inc., priority 2023, published 2025).
Where two headings read alike, the source gives them in different places.

B1: mepolizumab: eosinophil lowering drug; monoclonal antibody administered subcutaneously for asthma (antibody, chains of the INN, looked up, V domains shown)
VH: QVTLRESGPALVKPTQTLTLTCTVSGFSLTSYSVHWVRQPPGKGLEWLGVIWASGGTDYNSALMSRLSISKDTSRNQVVLTMTNMDPVDTATYYCARDPPSSLLRLDYWGRGTPVTVSS
VL: DIVMTQSPDSLAVSLGERATINCKSSQSLLNSGNQKNYLAWYQQKPGQPPKLLIYGASTRESGVPDRFSGSGSGTDFTLTISSLQAEDVAVYYCQNVHSFPFTFGGGTKLEIK

Columns and labels:
[1] = tested on: subjects with eosinophilic chronic rhinosinusitis with nasal polyps; conditions: cited from earlier work; for total polyp score (TPS), mean value: baseline 5.29
[2] = tested on: moderate to severe asthma; assay: Phase II dose finding study in moderate to severe asthma (EXHALE)
[3] = tested on: Chronic rhinosinusitis with nasal polyps; conditions: in vivo; cited from earlier work
[4] = 150 mg twice daily, 6 month trial
[5] = 150 mg twice daily, 12 subjects with a history of asthma

| Molecule | total polyp score (TPS), mean value ([1]; 150 mg twice daily, 3 months) | SNOT-22 (rhinosinusitis symptoms) [1, 4] | Sniffin Sticks olfaction test [1, 4] | sinus CT score [1, 4] | total polyp score (TPS), mean value ([1]; 150 mg twice daily, 6 months) | ACQ6 value [1, 5] | FEV1 value [1, 5] | lowering of the AEC (blood absolute eosinophil count) ([1]; dexpramipexole 150 mg twice daily, after 6 months, 16 subjects) [%] | safety and tolerability profile ([2]; Phase II, compared with placebo) | eosinophils in blood and airways ([2]; Phase II, moderate to severe asthma) | placebo-corrected change from baseline in pre-bronchodilator (pre-BD) FEV1 ([2]; across the dose groups at various timepoints) | efficacy in chronic rhinosinusitis with nasal polyps [3] |
| --- | --- | --- | --- | --- | --- | --- | --- | --- | --- | --- | --- | --- |
| CCCN[C@@H]1CCc2nc(N)sc2C1 [dexpramipexole, (6R)-2-amino-4,5,6,7-tetrahydro-6-(propylamino)benzothiazole] | 5.50 | not improved | not improved | not improved | 5.42 | unchanged | unchanged | 94 | tolerability profile of dexpramipexole in this Phase II study was similar to | significant, dose-dependent, and durable reductions | clinically meaningful, placebo-corrected, change from baseline in pre- |  |
| B1 |  |  |  |  |  |  |  |  |  |  |  | have shown efficacy |
